Assay results: patent publication US12691101B2, “Compound and method for preventing or treating of respiratory diseases comprising the same as an active ingredient” (YONSEI UNIVERSITY, UNIVERSITY - INDUSTRY FOUNDATION (UIF), priority 2019, dated 2026)

Biological target: T1, human wild-type (WT)-pendrin (Homo sapiens, UniProt O43511)
T1 construct: expressed in transfected cells
T1 sequence (O43511 1-780): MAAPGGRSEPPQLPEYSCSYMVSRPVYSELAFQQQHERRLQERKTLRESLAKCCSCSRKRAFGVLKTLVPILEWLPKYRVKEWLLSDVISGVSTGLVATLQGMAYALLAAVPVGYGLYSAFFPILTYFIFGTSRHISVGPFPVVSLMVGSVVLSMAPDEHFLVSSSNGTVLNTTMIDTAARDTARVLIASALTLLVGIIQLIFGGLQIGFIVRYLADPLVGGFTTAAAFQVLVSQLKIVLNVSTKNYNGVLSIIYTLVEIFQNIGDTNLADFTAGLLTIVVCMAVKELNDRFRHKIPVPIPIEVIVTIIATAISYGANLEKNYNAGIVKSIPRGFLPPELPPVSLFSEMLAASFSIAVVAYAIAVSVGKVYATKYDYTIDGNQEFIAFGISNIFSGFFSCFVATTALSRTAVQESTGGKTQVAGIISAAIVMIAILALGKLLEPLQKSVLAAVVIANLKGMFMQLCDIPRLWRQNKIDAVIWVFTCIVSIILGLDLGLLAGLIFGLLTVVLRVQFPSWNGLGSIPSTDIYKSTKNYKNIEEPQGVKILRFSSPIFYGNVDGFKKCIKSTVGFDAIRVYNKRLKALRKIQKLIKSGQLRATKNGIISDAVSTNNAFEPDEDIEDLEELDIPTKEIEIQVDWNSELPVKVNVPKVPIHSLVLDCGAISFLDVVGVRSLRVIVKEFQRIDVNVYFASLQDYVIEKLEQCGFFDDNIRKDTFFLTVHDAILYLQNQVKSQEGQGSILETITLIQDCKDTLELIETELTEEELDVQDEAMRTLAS
Assay: Pendrin-mediated Cl^−/I^− exchange activity, YFP fluorescence in CHO-K1 cells
Format: cell-based
Conditions: for inhibition at 30 µM: CHO-K1, 30 μM, read-out: Pendrin inhibitory activity at 30 μM (%); for IC50: compounds showing pendrin inhibitory activity of 50% or more at 30 μM, read-out: IC50

SMILES	inhibition at 30 µM	other results
O=C1OC(c2ccccc2OC(F)F)=NC1=C/C=C/c1ccco1 [F135, 2-(2-(difluoromethoxy)phenyl)-4-((E)-3-(furan-2-yl)allylidene)oxazol-5 (4H)-one]	2.8%	
COc1ccccc1C1=NC(=Cc2cnn(C(C)(C)C)c2)C(=O)O1 [F136, 4-((1-(tert-butyl)-1H-pyrazol-4-yl)methylene)-2-(2-methoxyphenyl)oxazol-5(4H)-one]	2.4%	
CCCc1ccc(C2=NC(=Cc3scnc3C)C(=O)O2)cc1 [F137, 4-((4-Methylthiazol-5-yl)methylene)-2-(4-propylphenyl)oxazol-5(4H)-one]	3.1%	
CCCCOc1ccc(C2=NC(=Cc3ccc[nH]3)C(=O)O2)cc1 [F138, 4-((1H-pyrrol-2-yl)methylene)-2-(4-butoxyphenyl)oxazol-5 (4H)-one]	2.7%	
CCCCCCc1ccc(C2=NC(=Cc3cccs3)C(=O)O2)cc1 [F139, 2-(4-Hexylphenyl)-4-(thiophen-2-ylmethylene)oxazol-5 (4H)-one]	2.5%	
CC(C)(C)c1ccc(C2=NC(=Cc3cc4ccccc4[nH]3)C(=O)O2)cc1 [F140, 4-((1H-indol-2-yl)methylene)-2-(4-(tert-butyl)phenyl)oxazol-5(4H)-one]	3.3%	
CCCCCc1ccc(C2=NC(=Cc3ccco3)C(=O)O2)cc1 [F141, 4-(Furan-2-ylmethylene)-2-(4-pentylphenyl)oxazol-5(4H)-one]	1.9%	
CCCCOc1ccc(C2=NC(=Cc3cccs3)C(=O)O2)cc1 [F142, 2-(4-Butoxyphenyl)-4-(thiophen-2-ylmethylene)oxazol-5 (4H)-one]	2.4%	
CCCc1ccc(C2=NC(=Cc3ccc[nH]3)C(=O)O2)cc1 [F143, 4-((1H-pyrrol-2-yl)methylene)-2-(4-propylphenyl)oxazol-5(4H)-one]	87.4%	IC50: 5.3 ± 0.69 µM
CCCc1ccc(C2=NC(=Cc3cccs3)C(=O)O2)cc1 [F144, 2-(4-Propylphenyl)-4-(thiophen-2-ylmethylene)oxazol-5(4H)-one]	21.3%	
CCCc1ccc(C2=NC(=Cc3ccsc3)C(=O)O2)cc1 [F145, 2-(4-Propylphenyl)-4-(thiophen-3-ylmethylene)oxazol-5 (4H)-one]	20.8%	
CCCc1ccc(C2=NC(=Cc3ccco3)C(=O)O2)cc1 [F146, 4-(Furan-2-ylmethylene)-2-(4-propylphenyl)oxazol-5(4H)-one]	26.1%	
CCCCCCc1ccc(C2=NC(=Cc3ccc[nH]3)C(=O)O2)cc1 [F147, 4-((1H-pyrrol-2-yl)methylene)-2-(4-hexylphenyl)oxazol-5(4H)-one]	3.4%	
CC(C)(C#N)c1ccc(C2=NC(=Cc3ccc[nH]3)C(=O)O2)cc1 [F148]	100%	IC50: 0.2 ± 0.06 µM
Cc1cc(C)cc(C2=NC(=Cc3ccc[nH]3)C(=O)O2)c1 [F149, 4-((1H-pyrrol-2-yl)methylene)-2-(3,5-dimethylphenyl)oxazol-5(4H)-one]	4.8%	
Cc1cc(C)cc(C2=NC(=Cc3cccs3)C(=O)O2)c1 [F150, 2-(3,5-Dimethylphenyl)-4-(thiophen-2-ylmethylene)oxazol-5(4H)-one]	6.9%	
O=C(O)C(=Cc1ccco1)NC(=O)c1ccc(Br)cc1 [G16, 2-(4-Bromobenzamido)-3-(furan-2-yl)acrylate]		Pendrin inhibitory activity at 30 μM (%): 1.8%
O=C(O)C(=Cc1ccco1)NC(=O)c1ccc(Br)cc1 [G21, 2-(4-Bromobenzamido)-3-(furan-2-yl)acrylate]		Pendrin inhibitory activity at 30 μM (%): 4.1%
COC(=O)C(=Cc1ccc[nH]1)NC(=O)c1ccc(C(C)(C)C)cc1 [G23, Methyl-2-(4-(tert-butyl)benzamido)-3-(1H-pyrrol-2-yl)acrylate]		Pendrin inhibitory activity at 30 μM (%): 2.7%

Second part, led by results:

inhibition at 30 µM	SMILES	other results
2.9%	COC(=O)C(=Cc1ccc[nH]1)NC(=O)c1ccc(C(C)(C)C)cc1 [G1, Methyl 2-(4-(tert-butyl)benzamido)-3-(1H-pyrrol-2-yl)acrylate]	
3.8%	COC(=O)C(=Cc1cccs1)NC(=O)c1ccc(C(C)(C)C)cc1 [G2, Methyl 2-(4-(tert-butyl)benzamido)-3-(thiophen-2-yl)acrylate]	
55.6%	CC(C)(C)c1ccc(C(=O)NC(=Cc2cccs2)C(=O)O)cc1 [G3, 2-(4-(tert-butyl)benzamido)-3-(thiophen-2-yl)acrylate]	IC50: 26.8 ± 2.54 µM
4.4%	COC(=O)C(=Cc1ccco1)NC(=O)c1ccc(C(C)(C)C)cc1 [G4, Methyl 2-(4-(tert-butyl)beznamido)-3-(furan-2-yl)acrylate]	
60.9%	CC(C)(C)c1ccc(C(=O)NC(=Cc2ccco2)C(=O)O)cc1 [G5, 2-(4-(tert-butyl)benzamido)-3-(furan-2-yl)acrylate]	IC50: 22.6 ± 2.46 µM
4.7%	CC(C)(C)OC(=O)C(=Cc1ccc[nH]1)NC(=O)c1ccc(C(C)(C)C)cc1 [G6, tert-butyl 2-(4-(tert-butyl)benzamido)-3-(1H-pyrrol-2-yl)acrylate]	
82.1%	CC(C)(C)c1ccc(C(=O)NC(=Cc2ccc[nH]2)C(=O)O)cc1 [G7, 2-(4-(tert-butyl)benzamido)-3-(1H-pyrrol-2-yl)acrylate]	efficacy as pendrin inhibitor compared with F10: lower efficacy than F10; IC50: 6.8 ± 0.66 µM
68.8%	CC(C)(C)c1ccc(C(=O)NC(=Cc2ccsc2)C(=O)O)cc1 [G8, 2-(4-(tert-butyl)benzamido)-3-(thiophen-3-yl)acrylate]	IC50: 20.2 ± 2.12 µM
3.9%	Cc1ncsc1C=C(NC(=O)c1ccc(C(C)(C)C)cc1)C(=O)O [G9, 2-(4-(tert-butyl)benzamido)-3-(4-methylthiazol-5-yl)acrylate]	
4.3%	Cn1cc(C=C(NC(=O)c2ccc(C(C)(C)C)cc2)C(=O)O)cn1 [G10, 2-(4-(tert-butyl)benzamido)-3-(1-methyl-1H-pyrazol-4-yl)acrylate]	
3.5%	CCCCc1ccc(C(=O)NC(=Cc2ccc[nH]2)C(=O)OC)cc1 [G11, Methyl 2-(4-butylbenzamido)-3-(1H-pyrrol-2-yl)acrylate]	
48.1%	CCCCc1ccc(C(=O)NC(=Cc2cccs2)C(=O)O)cc1 [G12, 2-(4-Butylbenzamido)-3-(thiophen-2-yl)acrylate]	
22.4%	CC(C)(C)c1ccc(C(=O)NC(=Cc2cccn2-c2ccccc2)C(=O)O)cc1 [G13, 2-(4-(tert-butyl)benzamido)-3-(1-phenyl-1H-pyrrol-2-yl)acrylate]	
2.5%	COC(=O)C(=Cc1cccn1-c1ccccc1)NC(=O)c1ccc(C(C)(C)C)cc1 [G14, Methyl 2-(4-(tert-butyl)benzamido)-3-(1-phenyl-1H-pyrrol-2-yl)acrylate]	
3.4%	COC(=O)C(=Cc1ccc[nH]1)NC(=O)c1ccc(C(F)(F)F)cc1 [G15, Methyl 3-(1H-pyrrol-2-yl)-2-(4-(trifluoromethyl)benzamido)acrylate]	
1.1%	COC(=O)C(=Cc1ccco1)NC(=O)c1ccc(C(F)(F)F)cc1 [G17, Methyl 3-(furan-2-yl)-2-(4-(trifluoromethyl)benzamido)acrylate]	
2.7%	O=C(O)C(=Cc1ccco1)NC(=O)c1ccc(C(F)(F)F)cc1 [G18, 3-(Furan-2-yl)-2-(4-(trifluoromethyl)benzamido)acrylate]	
3.9%	O=C(O)C(=Cc1cccs1)NC(=O)c1ccc(Br)cc1 [G19, 2-(4-Bromobenzamido)-3-(thiophen-2-yl)acrylate]	
3.4%	COC(=O)C(=Cc1ccco1)NC(=O)c1ccc(Br)cc1 [G20, Methyl 2-(4-bromobenzamido)-3-(furan-2-yl)acrylate]	
89.2%	CCCCc1ccc(C(=O)NC(=Cc2ccc[nH]2)C(=O)O)cc1 [G22, 2-(4-Butylbenzamido)-3-(1H-pyrrol-2-yl)acrylate]	IC50: 5.3 ± 0.58 µM
1.9%	O=C(O)C(=Cc1ccsc1)NC(=O)c1ccc2ccccc2c1 [G24, 2-(2-Naphthamido)-3-(thiophen-3-yl)acrylate]	
42.1%	CC(C)(C)c1ccc(C(=O)NC(=Cc2csc3ccccc23)C(=O)O)cc1 [G25, 3-(Benzo[b]thiophen-3-yl)-2-(4-(tert-butyl)benzamido)acrylate]	
85.6%	CC(C)Cc1ccc(C(=O)NC(=Cc2ccc[nH]2)C(=O)O)cc1 [G26, 2-(4-Isobutylbenzamido)-3-(1H-pyrrol-2-yl)acrylate]	IC50: 10.2 ± 1.38 µM
2.2%	Cc1ncsc1C=C(NC(=O)c1cccc2ccccc12)C(=O)O [G27, 2-(1-Naphthamido)-3-(4-methylthiazol-5-yl)acrylate]	
53.5%	CCCc1ccc(C(=O)NC(=Cc2ccc[nH]2)C(=O)O)cc1 [G28, 2-(4-Propylbenzamido)-3-(1H-pyrrol-2-yl)acrylate]	IC50: 28.9 ± 2.18 µM
81.7%	CCCCc1ccc(C(=O)NC(=Cc2ccsc2)C(=O)O)cc1 [G29]	IC50: 16.7 ± 1.87 µM
